Where “and” joins values, the source holds several entries; their conditions need not be identical. Equal entries are not always repeated. Where two headings read alike, the source gives them in different places.
Assays:
[1] = Surface-pressure area isotherms; format: physicochemical; conditions: for minimal area per molecule: constant pressure of 20 mN/m; for collapse point pressure of monolayer: pure water sub-phase; for Area/molecule: table, monolayer on pure water sub-phase
Description: The tested ceramides (C2 Cer, C4 Cer, C6 Cer, C8 Cer, C16 Cer) were dried in vacuum overnight, weighted and dissolved in hexane/isopropanol (3:2 vol.) to make the following stock solutions.
The surface-pressure/area isotherms were obtained on pure water sub-phase (similar isotherms were obtained on 140 mM NaCl). Barrier speed during compression was […] for all monolayers.
The minimal area per molecule of different ceramides (C2 Cer, C4 Cer, C6 Cer, C8 Cer, C16 Cer) was calculated at the constant pressure of 20 mN/m. […] The area per molecule of C2 Cer, C4 Cer, C8 Cer, C16 Cer was about 38, 46, 45.5, and 37.5^2, respectively.

[2] = Partition in the two phases of the Dole system; format: physicochemical
OV-1063 cells = assay: Apoptosis by chromatin morphology (Hoechst-33342, confocal microscopy); format: cell-based, human; conditions: 24 hr
Description: (§1) a) The morphology of chromatin was assessed by staining with Hoechst-33342 obtained from Calbiochem (La Jolla, Calif.), a molecule which when reside in the minor groove of the DNA strand enhance its fluorescence intensity and, therefore, it is preferentially stains dsDNA [Jouvet, P. Mol. Biol. Cell 11:1919-1932 (2000)]. Briefly, samples containing 5*10^5 cells were cultured on 6-well plates covered with a glass coverslip. After treatment of cells with IC50 of drugs, cells were washed with PBS and fixated with 4% formaldehyde. After that cells were stained with Hoechst-33342 (5 μg/ml) and washed. Thereafter, glass coverslip was placed on a glass slide and photographed using a CLMS.

C-26 cells = assay: as above; format: cell-based, human; conditions: 24 hr
Description: as §1

[3] = Partition in the two phases of the Dole system; format: physicochemical; remark: listed apart in the source
Description: The distribution of the C18 sphingosine-based ceramides with different acyl chain lengths and of DMS between the polar phase and respectively less polar phase (as defined below) of the Dole two phase system was determined. […] The different ceramides included: short (C2 Cer and C4 Cer), medium (C6 Cer and C8 Cer), long (C16 Cer). […] In: Liposome Technology 2nd Edn., G Gregoriadis (Ed.) CRC Press, Boca Raton, 1993, vol. 1, pp: 527-616]. The amount of each of the lipids used in each of the two phases was measured by thin-layer chromatography (TLC). For ceramide quantification TLC was developed in a solvent system containing chloroform/methanol (95:5 v/v). For DMS quantification TLC was developed in a solvent system containing chloroform/methanol/ammonia (89/9/2 v/v). Further, the TLC plate was sprayed with Copper sulfate reagent composed of 100 g anhydrous copper sulfate containing 80 ml of phosphoric acid (85%), %) dissolved in 600 ml of DDW. Copper sulphate reagent was applied to the plates by spraying, then heated and lipids appeared as dark brown spot. […] Quantity of ceramides in each phase was calculated from a standard curve of appropriate ceramide. […] (1993)Supra]. The distribution between the two Dole system phases was determined by the equation (as exemplified for ceramide): [formula] [formula] Where Kp denotes the partition coefficient of a given lipid or amphiphile referred to in the equation as lipid; Cer denotes ceramide; up is an abbreviation for the heptane rich low polarity upper phase and lp is an abbreviation for the polar isopropanol water rich lower phase.

OV-1063 = assay: Methylene blue assay of cell survival; format: cell-based, human; conditions: Table 8B
Excerpt: (§2) Several tumor cell lines in monolayers were used. A human ovarian carcinoma cell line (OV-1063), established at the Hadassah University Hospital, a human colon carcinoma cell line (C-26), a DOX-sensitive M-109S ([…]), and a DOX-resistant, M-109R ([…]). All cell lines were maintained in RPMI-1640 medium supplemented with 10% FCS, antibiotics, and glutamine. All culture medium components were purchased from Biological Industries (Beit-HaEmek, Israel). Both cell lines were maintained at 37° C. in a water-jacketed CO2 incubator.
(§3) a) Various ceramides (Cer) with different chain lengths: short (C2 Cer and C4 Cer), medium (C6 Cer and C8 Cer), and long (C16 Cer) were first dissolved in 100% ethanol to a concentration of 30 mM, added to a serum-containing medium and mixed immediately. The final ethanol concentration in the serum-containing culture medium ranged from 0.1-0.5% (depending on the type of ceramide (Cer)).
(§4) b) Various ceramides with different chain lengths: short C2 Cer, medium C6 Cer, and long C16 Cer were dissolved in ethanol:dodecane (98:2 v/v) to a concentration of 30 mM and added to serum-free medium and mixed. Final concentrations of the ethanol and dodecane in the culture medium containing 10% of FCS ranged from 0.098-0.49% and 0.002-0.01%, respectively, depending on the type of ceramide.
(§5) The cytotoxicity of the examined assemblies comprising ceramide was tested by the methylene blue ([…]) staining assay [Gorodetsky, R. et al. Int. J. Cancer. 75:635-642 (1998)]. A known number of exponentially growing cells in 200 μL of medium were plated in 96-microwell, flat-bottomed plates. For each of the variants tested, 4 wells were used. Following 24 hr of incubation in culture, 20 μL of different concentrations of the examined assemblies were added to each well containing untreated cells.
(§6) The following controls were used: Citrate buffer (5 mM, pH 7); Ethanol solution in medium RPMI 1640 (final concentration of 0.1%); A solution RPMI 1640 of ethanol:dodecane (98:2 […]) at a final concentration of 0.1% and 0.2%, respectively.
(§7) Cells were exposed to assemblies for 4, 24, 72 or 96 hr. At the end of assembly exposure, for a fixed time interval, the drug-treated cells, as well as parallel control cells, were washed, and the incubation continued in fresh medium until termination of the experiment. Following 72 hr or 96 hr of growth, cells were fixed by adding 50 μL of 2.5% glutaraldehyde to each well for 15 min. Fixed cells were rinsed 10 times with deionized water and once with borate buffer (0.1 M, pH 8.5), dried, and stained with MB (100 μL of 1% solution in 0.1 M borate buffer, pH 8.5) for 1 h at room temperature (r.t.). Stained cells were rinsed thoroughly with de-ionized water to remove any non-cell-bound dye and then dried. The MB bound to the fixed cells was extracted by incubation at 37° C. with 200 μL of 0.1 N HCl for 1 h, and the net optical density of the dye in each well was determined by a plate spectrophotometer (Labsystems Multyskan Bichromatic, Finland) at 620 nm.

C-26 = assay: Methylene blue assay of cell survival; format: cell-based, human; conditions: Table 8B
Excerpt: as §2, §3, §4, §5, §6, §7

[4] = read-out: IC50 (μM), 4 hr OV-1063
[5] = read-out: IC50 (μM), 24 hr OV-1063
[6] = read-out: IC50 (μM), 72 hr OV-1063
[7] = read-out: IC50 (μM), 24 hr C-26
[8] = read-out: IC50 (μM), 72 hr C-26

Row | Molecule | monolayer stability [1] | minimal area per molecule [1] [Å^2] | collapse point pressure of monolayer [1] | Area/molecule [1] [A^2] | Liposome formation (being a liposome forming lipid by itself) [2] | Apoptotic OV-1063 cells (% of total cell number), 24 hr (OV-1063 cells) [%] | Apoptotic C-26 cells (% of total cell number), 24 hr (C-26 cells) [%] | Kp (heptane rich/isopropanol and water rich partition coefficient) [3] | % of lipid in heptane-rich upper phase ([3]; Dole two phase system) | % of lipid in isopropanol/water lower phase ([3]; Dole two phase system) [%] | IC50 (OV-1063; [4]) [µM] | IC50 (OV-1063; [5]) [µM] | IC50 (OV-1063; [6]) [µM] | IC50 (C-26; read-out: IC50 (μM), 4 hr C-26) [µM] | IC50 (C-26; [7]) [µM] | IC50 (C-26; [8]) [µM] | Kp (heptane rich/isopropanol and water rich partition coefficient) ([3]; Dole two phase system)
1 | CCCCCCCCCCCCC/C=C/[C@@H](O)[C@H](CO)NC(=O)CCC [C4Cer, N-tetranoyl-D-erythro-sphingosine] | almost as stable as all the others | ~46 | about 42 mN/m | 46 | No | 58 | 10 | 0.92 | 32% and 31.5% | 68.5 | 10 ± 2.7 | 5.9 ± 0.14 | 3.95 ± 0.6 | 15.5 ± 3.5 | 6.25 ± 0.35 | 3.75 ± 0.35 | –
2 | CCCCCCCCCCCCC/C=C/[C@@H](O)[C@H](CO)NC(=O)CCCCCCC [C8Cer, N-octanoyl-D-erythro-sphingosine] | – | ~45.5 | about 42 mN/m | 45.5 | No | – | – | 5.25 | 72% | 28 | > 40 | 23.7 ± 1 | 19 ± 1.4 | > 40 | 23 ± 1.4 | 21.5 ± 2.1 | –
3 | Egg phosphatidylcholine [EPC] | – | – | – | – | Yes | – | – | – | 15.2% | 84.8 | – | – | – | – | – | – | 0.35
4 | hydrogenated soybean phosphatidylcholine [HSPC] | – | – | – | – | Yes | – | – | – | 36% | 64 | – | – | – | – | – | – | 1.13
